Measured values reported in US10287255B2, “Compounds as histone deacetylase 6 inhibitors and pharmaceutical compositions comprising the same” (CHONG KUN DANG PHARMACEUTICAL CORP., priority 2014, dated 2019).

What was measured:
human recombinant HDAC1 = biological target: T1, human recombinant HDAC1 (Homo sapiens, UniProt Q13547); experiment: HDAC1 enzyme activity inhibition assay (in vitro, fluorimetric); type: biochemical; conditions: human recombinant HDAC1, fluorimetric kit, 30° C. 60 minutes
T1 construct: purchased Enzo Life Science BML-SE456
How it was run: (§1)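 Human recombinant enzyme (0.3 μg for HDAC1) reacted with 10 μM Fluor de Lys-SIRT1 substrate and 5-fold compound dilutions at 30 °C for 60 min, then developer for 30 min. Fluorescence read at Ex 360/Em 460; IC50 calculated. HDAC6 run by the same protocol.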

human recombinant HDAC6 = biological target: T2, human recombinant HDAC6 (Homo sapiens, UniProt Q9UBN7); experiment: HDAC6 enzyme activity inhibition assay (in vitro, fluorimetric); type: biochemical; conditions: for HDAC6 selectivity (fold): HDAC6 selectivity over HDAC1; for IC50: human recombinant HDAC6, fluorimetric kit, same protocol as HDAC1
T2 construct: purchased Calbiochem 382180
T2 sequence (Q9UBN7 1-1215): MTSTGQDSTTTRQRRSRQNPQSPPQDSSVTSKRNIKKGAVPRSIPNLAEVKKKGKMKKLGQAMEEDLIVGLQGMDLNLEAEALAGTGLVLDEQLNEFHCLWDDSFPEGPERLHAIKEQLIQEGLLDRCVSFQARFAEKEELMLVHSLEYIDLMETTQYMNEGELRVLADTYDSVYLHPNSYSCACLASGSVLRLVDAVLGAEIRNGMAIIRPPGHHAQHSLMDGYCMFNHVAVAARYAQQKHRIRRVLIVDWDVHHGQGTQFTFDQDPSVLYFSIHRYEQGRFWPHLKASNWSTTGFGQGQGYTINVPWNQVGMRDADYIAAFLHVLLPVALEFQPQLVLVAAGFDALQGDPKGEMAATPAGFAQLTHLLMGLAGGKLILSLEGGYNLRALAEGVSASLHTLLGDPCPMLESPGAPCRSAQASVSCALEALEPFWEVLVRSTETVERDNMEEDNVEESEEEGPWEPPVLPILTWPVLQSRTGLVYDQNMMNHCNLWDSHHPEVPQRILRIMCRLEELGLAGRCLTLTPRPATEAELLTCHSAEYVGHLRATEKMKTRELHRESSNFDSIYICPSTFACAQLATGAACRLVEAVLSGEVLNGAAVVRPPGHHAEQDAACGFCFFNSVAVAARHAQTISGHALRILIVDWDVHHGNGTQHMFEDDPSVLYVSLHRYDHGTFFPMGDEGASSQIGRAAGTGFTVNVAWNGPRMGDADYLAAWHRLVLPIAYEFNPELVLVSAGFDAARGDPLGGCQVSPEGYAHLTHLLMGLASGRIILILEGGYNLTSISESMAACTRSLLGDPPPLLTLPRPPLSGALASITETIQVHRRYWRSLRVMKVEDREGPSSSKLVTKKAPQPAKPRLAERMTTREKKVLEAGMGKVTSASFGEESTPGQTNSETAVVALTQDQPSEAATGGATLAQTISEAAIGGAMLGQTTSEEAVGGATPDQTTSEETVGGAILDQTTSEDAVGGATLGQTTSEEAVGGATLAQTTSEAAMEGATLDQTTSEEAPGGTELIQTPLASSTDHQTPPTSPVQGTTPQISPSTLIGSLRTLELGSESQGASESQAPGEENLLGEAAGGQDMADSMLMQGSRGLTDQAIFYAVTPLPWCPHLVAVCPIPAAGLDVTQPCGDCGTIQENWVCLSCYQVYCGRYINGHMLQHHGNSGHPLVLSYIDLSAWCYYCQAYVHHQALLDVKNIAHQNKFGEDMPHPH
How it was run: as §1

T1 sequence (Q13547 whole entry): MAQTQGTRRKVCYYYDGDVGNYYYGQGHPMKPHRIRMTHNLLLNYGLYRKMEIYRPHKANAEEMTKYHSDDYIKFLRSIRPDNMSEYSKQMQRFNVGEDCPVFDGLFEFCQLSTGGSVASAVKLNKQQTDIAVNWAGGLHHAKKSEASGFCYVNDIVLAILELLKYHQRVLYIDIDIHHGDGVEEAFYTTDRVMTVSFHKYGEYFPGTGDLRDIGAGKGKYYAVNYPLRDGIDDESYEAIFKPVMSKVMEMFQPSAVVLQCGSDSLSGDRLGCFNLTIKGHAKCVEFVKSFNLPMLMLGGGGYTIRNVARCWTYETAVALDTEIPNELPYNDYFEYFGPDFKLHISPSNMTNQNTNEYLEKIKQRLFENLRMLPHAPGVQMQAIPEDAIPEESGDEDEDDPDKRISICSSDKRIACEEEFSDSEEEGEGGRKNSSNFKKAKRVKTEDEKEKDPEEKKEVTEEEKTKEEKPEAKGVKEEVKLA

IC50 (human recombinant HDAC1) | HDAC6 selectivity (fold) (human recombinant HDAC6) | IC50 (human recombinant HDAC6) | Compound
5800 nM | 481 fold | 12 nM | C[C@@H]1CN(Cc2ccc(C(=O)NO)cc2)C[C@H](C)N1Cc1cccc(-c2cccnc2)c1 [Compound 344, 4-(((3R,5S)-3,5-dimethyl-4-(3-(pyridin-3-yl)benzyl)piperazin-1-yl)methyl)-N-hydroxybenzamide]
5500 nM | 341 fold | 16 nM | C[C@@H]1CN(Cc2ccc(C(=O)NO)cc2)C[C@H](C)N1Cc1cccc(-c2ccncc2)c1 [Compound 345, 4-(((3R,5S)-3,5-dimethyl-4-(3-(pyridin-4-yl)benzyl)piperazin-1-yl)methyl)-N-hydroxybenzamide]
8300 nM | 332 fold | 25 nM | C[C@@H]1CN(Cc2ccc(C(=O)NO)cc2)C[C@H](C)N1Cc1cccc(C2=CCOCC2)c1 [Compound 346, 4-(((3R,5S)-4-(3-(3,6-dihydro-2H-pyran-4-yl)benzyl)-3,5-dimethylpiperazin-1-yl)methyl)-N-hydroxybenzamide]
> 10000 nM | >25 fold | 408 nM | C[C@@H]1CN(Cc2ccc(C(=O)NO)cc2)C[C@H](C)N1Cc1cccc(C2=CCC(C)(C)CC2)c1 [Compound 347, 4-(((3R,5S)-4-((4′,4′-dimethyl-2′,3′,4′,5′-tetrahydro-[1,1′-biphenyl]-3-yl)methyl)-3,5-dimethylpiperazin-1-yl)methyl)-N-hydroxybenzamide]
4700 nM | 6 fold | 843 nM | C[C@@H]1CN(Cc2ccccc2-c2ccoc2)C[C@H](C)N1Cc1ccc(C(=O)NO)cc1 [Compound 348, 4-(((2S,6R)-4-(2-(furan-3-yl)benzyl)-2,6-dimethylpiperazin-1-yl)methyl)-N-hydroxybenzamide]
5000 nM | 1000 fold | 5 nM | C[C@@H]1CN(Cc2ccccc2-c2cccnc2)C[C@H](C)N1Cc1ccc(C(=O)NO)cc1 [Compound 349, 4-(((2S,6R)-2,6-dimethyl-4-(2-(pyridin-3-yl)benzyl)piperazin-1-yl)methyl)-N-hydroxybenzamide]
3300 nM | 17 fold | 194 nM | C[C@@H]1CN(Cc2ccccc2-c2ccncc2)C[C@H](C)N1Cc1ccc(C(=O)NO)cc1 [Compound 350, 4-(((2S,6R)-2,6-dimethyl-4-(2-(pyridin-4-yl)benzyl)piperazin-1-yl)methyl)-N-hydroxybenzamide]
5100 nM | 15 fold | 351 nM | C[C@@H]1CN(Cc2ccccc2C2=CCOCC2)C[C@H](C)N1Cc1ccc(C(=O)NO)cc1 [Compound 351, 4-(((2S,6R)-4-(2-(3,6-dihydro-2H-pyran-4-yl)benzyl)-2,6-dimethylpiperazin-1-yl)methyl)-N-hydroxybenzamide]
13800 nM | >13 fold | 1060 nM | C[C@@H]1CN(Cc2ccccc2C2=CCC(C)(C)CC2)C[C@H](C)N1Cc1ccc(C(=O)NO)cc1 [Compound 352, 4-(((2S,6R)-4-((4′,4′-dimethyl-2′,3′,4′,5′-tetrahydro-[1,1′-biphenyl]-2-yl)methyl)-2,6-dimethylpiperazin-1-yl)methyl)-N-hydroxybenzamide]
> 10000 nM | >2000 fold | 5 nM | C[C@@H]1CN(Cc2ccc(C(=O)NO)cc2)C[C@H](C)N1Cc1cocn1 [Compound 354, 4-(((3R,5S)-3,5-dimethyl-4-(oxazol-4-ylmethyl)piperazin-1-yl)methyl)-N-hydroxybenzamide]
21000 nM | 20 fold | 1060 nM | C[C@@H]1CN(Cc2ccc(C(=O)NO)cc2)C[C@H](C)N1Cc1cncnc1 [Compound 355, 4-(((3R,5S)-3,5-dimethyl-4-(pyrimidin-5-ylmethyl)piperazin-1-yl)methyl)-N-hydroxybenzamide]
12300 nM | 558 fold | 22 nM | C[C@@H]1CN(Cc2ccc(C(=O)NO)cc2)C[C@H](C)N1Cc1cccc(CN2CCOCC2)c1 [Compound 356, 4-(((3R,5S)-3,5-dimethyl-4-(3-(morpholinomethyl)benzyl)piperazin-1-yl)methyl)-N-hydroxybenzamide]
> 10000 nM | >119 fold | 84 nM | C[C@@H]1CN(Cc2ccc(C(=O)NO)cc2)C[C@H](C)N1Cc1ccc(CN2CCOCC2)cc1 [Compound 376, 4-(((3R,5S)-3,5-dimethyl-4-(4-(morpholinomethyl)benzyl)piperazin-1-yl)methyl)-N-hydroxybenzamide]
> 10000 nM | >62 fold | 162 nM | C[C@@H]1CN(Cc2ccc(C(=O)NO)cc2)C[C@H](C)N1Cc1cccc(OCC2CCN(CC(C)(C)F)CC2)c1 [Compound 380, 4-(((3R,5S)-4-(3-((1-(2-fluoro-2-methylpropyl)piperidin-4-yl)methoxy)benzyl)-3,5-dimethylpiperazin-1-yl)methyl)-N-hydroxybenzamide]
> 10000 nM | – | 83 nM | C[C@@H]1CN(Cc2ccc(C(=O)NO)cc2)C[C@H](C)N1Cc1cccc(CN2CCCCC2)c1 [Compound 382, 4-(((3R,5S)-3,5-dimethyl-4-(3-(piperidin-1-ylmethyl)benzyl)piperazin-1-yl)methyl)-N-hydroxybenzamide]
> 10000 nM | >102 fold | 98 nM | C[C@@H]1CN(Cc2ccc(C(=O)NO)cc2)C[C@H](C)N1Cc1cccc(CN2CC[C@@H](F)C2)c1 [Compound 383, 4-(((3R,5S)-4-(3-(((R)-3-fluoropyrrolidin-1-yl)methyl)benzyl)-3,5-dimethylpiperazin-1-yl)methyl)-N-hydroxybenzamide]
> 10000 nM | >94 fold | 106 nM | C[C@@H]1CN(Cc2ccc(C(=O)NO)cc2)C[C@H](C)N1Cc1cccc(CN2CC(F)(F)C2)c1 [Compound 384, 4-(((3R,5S)-4-(3-((3,3-difluoroazetidin-1-yl)methyl)benzyl)-3,5-dimethylpiperazin-1-yl)methyl)-N-hydroxybenzamide]
> 10000 nM | >53 fold | 189 nM | C[C@@H]1CN(Cc2ccc(C(=O)NO)cc2)C[C@H](C)N1Cc1cccc(CN2CCN(Cc3ccccc3)CC2)c1 [Compound 385, 4-(((3R,5S)-4-(3-((4-benzylpiperazin-1-yl)methyl)benzyl)-3,5-dimethylpiperazin-1-yl)methyl)-N-hydroxybenzamide]
> 10000 nM | >77 fold | 130 nM | C[C@@H]1CN(Cc2ccc(C(=O)NO)cc2)C[C@H](C)N1Cc1cccc(CN2CCN(CC(C)(C)O)CC2)c1 [Compound 386, N-hydroxy-4-(((3R,5S)-4-(3-((4-(2-hydroxy-2-methylpropyl)piperazin-1-yl)methyl)benzyl)-3,5-dimethylpiperazin-1-yl)methyl)benzamide]
> 10000 nM | >118 fold | 85 nM | C[C@@H]1CN(Cc2ccc(C(=O)NO)cc2)C[C@H](C)N1Cc1cccc(CN2CCN(CC(C)(C)F)CC2)c1 [Compound 387, 4-(((3R,5S)-4-(3-((4-(2-fluoro-2-methylpropyl)piperazin-1-yl)methyl)benzyl)-3,5-dimethylpiperazin-1-yl)methyl)-N-hydroxybenzamide]
